Literature values as cited in patent US20180373846A1, “METHODS AND SYSTEMS FOR ORGANIC SOLUTE SAMPLING OF AQUEOUS AND HETEROGENEOUS ENVIRONMENTS” (University of Maryland, Baltimore, priority 2014, published 2018).

Tests used:
[1] = Table 2, reference 31
[2] = experimental hydration free energy
T4-L99A = T4-L99A (Enterobacteria phage T4, UniProt P00720, L99A)
β2AR = β2AR (Homo sapiens, UniProt P07550); conditions: experimental, from cited references

ΔGbind (β2AR)	Compound	HFE^fep [1]	HFE^exp [2]	experimental binding affinity (T4-L99A)
	CC=O [Acetaldehyde, acetaldehyde]	-4.43 kcal/mol	-3.5 kcal/mol	
	CC(=O)O [Acetate]	-96.5 kcal/mol	-79.1 kcal/mol	
	c1ccccc1 [Benzene, benzene]	-0.71 kcal/mol	-0.83 kcal/mol	-5.19 ± 0.16 kcal/mol
	NC=O [Formamide, formamide]	-10.71 kcal/mol	-14 kcal/mol	
	c1c[nH]cn1 [Imidazole, imidazole]	-12.55 kcal/mol		
	CO [Methanol, methanol]	-6.16 kcal/mol	-5.1 kcal/mol	
	CN [Methylammonium, methylammonium]	-52.0 kcal/mol	-71.3 kcal/mol	
−12.23	Nc1c(Cl)cc([C@@H](O)CNCCCCCCOCCc2ccccn2)cc1Cl [Picumeterol]			
	CCC [Propane, propane]	1.60 kcal/mol	1.96 kcal/mol	
	O [Water, water]		-5.6 kcal/mol	
−9.72	Hydroxybenzyl isoproterenol			

Compound	ΔGbind (β2AR)	HFE^fep [1]	HFE^exp [2]	experimental binding affinity (T4-L99A)
CC(C)NCC(O)COc1cccc2[nH]ccc12 (centres unmarked) [Pindolol]	−12.43			
